In paper PMC1713233, “Implantation Serine Proteinases heterodimerize and are critical in hatching and implantation” (BMC Developmental Biology, 2006):
Counter-ions that a name gives are not always drawn. Like-named read-outs stand apart in the source and are kept apart here. Residues, ends and D or L forms follow the SMILES beside them. *: point of attachment. pNA = O=[N+]([O-])c1ccc(N*)cc1; Bz = O=C(c1ccccc1)*

Columns and labels:
ISP1-ISP2 enzyme complex [1] = molecular target: T1, ISP1-ISP2 enzyme complex (Mus musculus, UniProt Q924N9+Q99MS4); assay: Inhibition of proteolytic activity of ISP enzyme complex, chromogenic assay with BAPNA as substrate; type: biochemical; conditions: for Ki: from IC50 by Cheng and Prusoff equation, read-out: Dissociation Constant (Ki); for Influence on ISP activity: general trypsin inhibitors; for Affinity for ISP enzyme: Fig. 4B, compared to Benzamidine
T1 construct: The native ISP enzyme complex was purified from mouse uterine tissue homogenates; from tissue; host or cells: uterus of pregnant CD1 mice (4.5-6.5 dpc)
T1 sequence (Q924N9 27-274): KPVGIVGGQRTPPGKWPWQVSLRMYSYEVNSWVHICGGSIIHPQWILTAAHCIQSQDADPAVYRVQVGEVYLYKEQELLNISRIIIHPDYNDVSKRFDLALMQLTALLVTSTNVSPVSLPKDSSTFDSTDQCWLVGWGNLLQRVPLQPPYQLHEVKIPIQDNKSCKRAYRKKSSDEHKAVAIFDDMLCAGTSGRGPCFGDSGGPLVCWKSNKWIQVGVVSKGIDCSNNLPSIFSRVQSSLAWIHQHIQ
T1 sequence (Q99MS4 18-279): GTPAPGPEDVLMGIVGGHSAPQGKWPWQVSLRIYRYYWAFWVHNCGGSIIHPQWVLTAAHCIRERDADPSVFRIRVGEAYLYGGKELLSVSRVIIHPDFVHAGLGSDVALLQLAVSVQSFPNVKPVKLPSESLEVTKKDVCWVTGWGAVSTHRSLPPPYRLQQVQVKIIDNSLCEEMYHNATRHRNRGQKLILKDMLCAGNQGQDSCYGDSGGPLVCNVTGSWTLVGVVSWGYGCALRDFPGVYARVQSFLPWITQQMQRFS
Description: Many general serine proteinase inhibitors were tested in order to identify suitable ISP inhibitors when BAPNA was used as a substrate. These included Benzamidine hydrochloride, 4-(Amidino-Phenyl)-Methane-Sulfonyl Fluoride (APMSF), L-1 Chloro-3- [4-tosyl-amido]-7-amino-2-heptanone. HCl (TLCK), Trypsin Soybean Inhibitor (TSI), Bis (5-amidino-2-benzimadozolyl) methane (BABIM), Gabexate mesylate, Nafamostat, and the kunitz family serpins Uterine Plasmin-Trypsin Inhibitor (UPTI) and Secretary Leukocyte proteinase inhibitor (SLPI).
Only inhibitors specific for trypsin-like serine proteinases were able to inhibit the ISPs (Fig. 4B and Additional file 2. Table 1). IC50 (concentration of an inhibitor capable of inhibiting the enzyme activity by 50%) values were obtained by plotting inhibition data, which were extrapolated into Cheng and Prusoff's equation to derive the dissociation constant (Ki).
(§1) Chromogenic assays were carried out using the p-Nitroanilide conjugated peptidic substrates. The reaction conditions used were: 4 mM BAPNA (substrate), in 25 mM Tris.Cl (pH 8.0) and 10 mM EDTA reaction buffer, in a total reaction volume of 0.5 mL. The reactions were carried out at room temperature in a glass cuvette (1 cm path length), and scanned at wavelength maxima of 405 nm using a spectrophotometer. 1 Unit of enzyme is defined as enzyme activity sufficient for the breakdown of 1 μM of substrate/ml/min. The affinity of ISP complex with various substrates was characterized by measuring enzyme activity at differing substrate concentrations and plotting enzyme activity [V] vs. substrate concentration [S]. The Km was calculated using the Michaelis Menton equation (Km = [S] at 1/2 Vmax).
IC50 values were derived by plotting enzyme activity (V) vs. inhibitor concentration [I]. Dissociation constants (Ki) values for different inhibitors were determined by using the Cheng and Prusoff equation (Ki = IC50/1 + [S]/Km).

blastocysts = assay: In vitro embryo hatching; type: cell-based
Text: In order to define a physiological role for the ISPs, the effect of inhibiting ISP activity upon embryo hatching, outgrowth (Fig. 6 and 7) and implantation (Table 1) was investigated. Blastocysts were first cultured in the presence or absence of anti-ISP mAbs or selected inhibitors. […] Similarly, the effect of varying concentrations of anti-ISP1 and anti-ISP2 mAbs was studied both individually and together (Fig. 7C, E and 7G).
(§2) Blastocysts were collected by flushing the uteri of day 3.5 post coetum dams with M2 (Sigma Aldrich and Co.) medium. For in vitro hatching experiments, blastocysts were cultured in micro drops of Knockout DMEM medium (Invitrogen) with serum replacement in a drop under mineral oil at 37°C and 5% CO2 [27]. For in vitro embryo outgrowth onto extracellular matrix, hatched blastocysts were cultured for an additional 48 h at 37°C and 5% CO2 in DMEM plus 5% (v/v) fetal bovine serum on […] Nunc tissue culture dishes coated with extracellular matrix derived from 10% Triton X-100 (v/v) treated mouse embryo fibroblasts. Inhibitors or anti-ISP mAbs were mixed into media at stated concentrations. For antibody inhibition experiments, anti-ISP hybridoma supernatants (or negative control supernatants) were mixed with embryo culture media at an appropriate concentration. For inhibitor experiments, negative controls contained the medium used to dispense Gabexate mesylate.

ISP1-ISP2 enzyme complex [2] = molecular target: T1, ISP1-ISP2 enzyme complex; assay: Substrate affinity (Km) of synthetic chromogenic substrates for ISP enzyme complex; type: biochemical; conditions: Km = [S] at 1/2 Vmax
Description: To determine the substrate specificity of the ISP complex and to classify it into a subclass of the S1 family of serine proteinases, enzyme assays were carried out using different p-nitroanilide linked peptide (1–3 mer) substrates. These included chymotrypsin-like (Tyr/Phe at cleavage (P1) site), trypsin-like (Arg/Lys at P1 position), elastase-like (Ala at P1 position), and subtilisin-like (Leu at P1 position) substrates. In order to compare affinity of specific substrates and derive Michaelis Menton constant (Km) values, the kinetic curves were plotted (substrate conc. [S] vs. rate of reaction [v]).
as §1

hatched blastocysts [3] = assay: In vitro embryo outgrowth onto extracellular matrix; type: cell-based; conditions: for Embryo death: 48 hrs
Text: Implantation was simulated in vitro by growth of the hatched blastocysts in culture plates coated with the extracellular matrix derived from mouse embryonic fibroblasts, which can be invaded by outgrowing embryos (Fig. 6C and 6D). The effect of Gabexate on blastocyst outgrowth is also incremental with increasing concentration of Gabexate (Fig. 7B). […] A similar result was not observed for individual or combined mAbs, possibly owing to the abundance of ISP enzyme that occurs within the uterine fluid.
as §2

hatched blastocysts [4] = assay: as above; type: cell-based
embryo implantation = assay: Effect on pregnancy after injection into the uterine lumen; type: in vivo, CD1 mice; conditions: for # pregnant / # embryos: 10 ul of 10 mM per uterine horn at 2.5 dpc, examined at 7.5 dpc; for Rate (%) of pregnancy: rate of pregnancy in Controls assumed as 100%
Description: CD1 mice were obtained at the age of 6–8 weeks from Charles River Canada (St. Constant, Quebec) and maintained in a standard laboratory animal facility with controlled temperature (20°C), humidity and light cycle (lights on between 0700 and 1900 hr). The maintenance and treatment of animals was in full compliance with the Standard laboratory animal care protocols approved by the University of Calgary Animal Care Committee. To obtain natural pregnancies, female mice were paired with adult males and checked daily for the presence of vaginal copulatory plugs, as an indication of mating. The day of plug detection is designated as day 0.5 post coetum. For collection of uteri and embryos, pregnant dams were sacrificed on a specific day by cervical dislocation.
Uterine horns were exposed surgically whereupon inhibitor or anti-ISP antibodies were injected into the uterine lumen using the minimum possible volume (10 μl fluid was injected per horn). Since Gabexate was dissolved in normal saline, the control mice were injected with normal saline solution.

[5] = 4 mM BAPNA substrate, 25 mM Tris.Cl pH 8.0, room temperature, read-out: IC50%
[6] = Expt 04, 0.1 mM, 6 embryos/drop, control 6
[7] = Expt 04, 0.25 mM, 6 embryos/drop, control 6
[8] = Expt 06, 0.01 mM, 5 embryos/drop, control 4
[9] = Expt 06, 0.05 mM, 5 embryos/drop, control 4
[10] = Expt 06, 0.1 mM, 5 embryos/drop, control 4
[11] = Expt 07, 0.1 mM, 5 embryos/drop, control 6 of 6
[12] = Expt 07, 0.5 mM, 6 embryos/drop, control 6

N=C(N)c1ccc(CS(=O)(=O)F)cc1 [APMSF, 4-(Amidino-Phenyl)-Methane-Sulfonyl Fluoride]
IC50 (ISP1-ISP2 enzyme complex [1]; [5]): 19500 µM | Ki (ISP1-ISP2 enzyme complex [1]; BAPNA substrate): 5310 µM | Influence on ISP activity (ISP1-ISP2 enzyme complex [1]): inhibitory influence

N=C(N)c1ccc2[nH]c(Cc3nc4cc(C(=N)N)ccc4[nH]3)nc2c1 [BABIM, Bis (5-amidino-2-benzimadozolyl) methane]
Embryos hatched after 24 hrs. (blastocysts; [6]): 5 | Embryos hatched after 48 hrs. (blastocysts; [6]): 6 | Embryos hatched after 24 hrs. (blastocysts; [7]): 1 | Embryos hatched after 48 hrs. (blastocysts; [7]): 1 | Embryo death (blastocysts; Expt 04, 0.5 mM, 6 embryos/drop, 24 hrs): all died | Embryos hatched after 24 hrs. (blastocysts; Expt 04, 0.5 mM, 6 embryos/drop, control 6): 0 | IC50 (ISP1-ISP2 enzyme complex [1]; [5]): 750 µM | Affinity for ISP enzyme (ISP1-ISP2 enzyme complex [1]): relatively high affinity | Ki (ISP1-ISP2 enzyme complex [1]; BAPNA substrate): 204 µM | Influence on ISP activity (ISP1-ISP2 enzyme complex [1]): inhibitory influence

CC(C)[C@H](NC(=O)[C@H](Cc1ccccc1)NC(=O)c1ccccc1)C(=O)N[C@@H](CCCN=C(N)N)C(=O)Nc1ccc([N+](=O)[O-])cc1 [BPVANA, N-Benzoyl-Phe-Val-Arg-pNA] (Bz-Phe-Val-Arg-pNA)
Km (ISP1-ISP2 enzyme complex [2]): 60 µM

N=C(N)c1ccccc1 [Benzamidine hydrochloride]
Embryo death (blastocysts; Expt 01, 50 mM, 12 embryos/drop, 24 hrs): all died | Embryos hatched after 24 hrs. (blastocysts; Expt 01, 50 mM, 12 embryos/drop, control 9): 0 | Embryo death (blastocysts; Expt 02, 20 mM, 10 embryos/drop, 24 hrs): all died | Embryos hatched after 24 hrs. (blastocysts; Expt 02, 20 mM, 10 embryos/drop, control 5): 0 | Embryos hatched after 24 hrs. (blastocysts; Expt 03, 0.5 mM, 11 embryos/drop, control 5): 3 | Embryos hatched after 48 hrs. (blastocysts; Expt 03, 0.5 mM, 11 embryos/drop, control 10): 4 | Embryos hatched after 24 hrs. (blastocysts; Expt 03, 1 mM, 11 embryos/drop, control 5): 4 | Embryos hatched after 48 hrs. (blastocysts; Expt 03, 1 mM, 11 embryos/drop, control 10): 7 | Embryos hatched after 24 hrs. (blastocysts; Expt 03, 4 mM, 11 embryos/drop, control 5): 2 | Embryos hatched after 48 hrs. (blastocysts; Expt 03, 4 mM, 11 embryos/drop, control 10): 2 | Ki (ISP1-ISP2 enzyme complex [1]; BAPNA substrate): 44300 µM | Influence on ISP activity (ISP1-ISP2 enzyme complex [1]): inhibitory influence | Embryo death (hatched blastocysts [3]; Experiment 01, 50 mM, 12 hatched embryos): all died | Embryos outgrown after 48 hrs. (hatched blastocysts [3]; Experiment 01, 50 mM, 12 hatched embryos, control 9): 0 | Embryo death (hatched blastocysts [3]; Experiment 02, 4 mM, 10 hatched embryos): all died | Embryos outgrown after 48 hrs. (hatched blastocysts [3]; Experiment 02, 4 mM, 10 hatched embryos, control 10): 0

CCOC(=O)c1ccc(OC(=O)CCCCCNC(=N)N)cc1 [Gabexate mesylate]
Embryos outgrown after 72 hrs. (hatched blastocysts [4]; Experiment 03, 0.1 mM, 8 hatched embryos, control 7): 4 | Embryos outgrown after 72 hrs. (hatched blastocysts [4]; Experiment 03, 0.5 mM, 8 hatched embryos, control 7): 2 | Embryos outgrown after 72 hrs. (hatched blastocysts [4]; Experiment 04, 0.1 mM, 11 hatched embryos, control 9): 6 | Embryos outgrown after 72 hrs. (hatched blastocysts [4]; Experiment 04, 0.5 mM, 11 hatched embryos, control 9): 2 | Embryo death (blastocysts; CD1, mouse, 24 h, 0.1 mM): all died | Embryo death (blastocysts; CD1, mouse, 24 h, 0.5 mM): all died | Embryo death (blastocysts; CD1, mouse, 24 h, 2 mM): all died | Embryos hatched after 24 hrs. (blastocysts; Expt 05, 0.1 mM, 6 embryos/drop, control 6): 0 | Embryos hatched after 24 hrs. (blastocysts; Expt 05, 0.5 mM, 6 embryos/drop, control 6): 0 | Embryos hatched after 24 hrs. (blastocysts; Expt 05, 2.0 mM, 6 embryos/drop, control 6): 0 | Embryos hatched after 24 hrs. (blastocysts; [8]): 4 | Embryos hatched after 48 hrs. (blastocysts; [8]): 4 | Embryos hatched after 24 hrs. (blastocysts; [9]): 4 | Embryos hatched after 48 hrs. (blastocysts; [9]): 4 | Embryos hatched after 24 hrs. (blastocysts; [10]): 0 | Embryos hatched after 48 hrs. (blastocysts; [10]): 2 | Embryos hatched after 24 hrs. (blastocysts; [11]): 0 | Embryos hatched after 48 hrs. (blastocysts; [11]): 2 | Embryos hatched after 24 hrs. (blastocysts; [12]): 0 | Embryos hatched after 48 hrs. (blastocysts; [12]): 0 | Embryos hatched after 24 hrs. (blastocysts; Expt 08, 0.1 mM, 16 embryos/drop, control 4 of 17): 3 | Embryos hatched after 48 hrs. (blastocysts; Expt 08, 0.1 mM, 16 embryos/drop, control 12 of 17): 3 | Embryos hatched after 24 hrs. (blastocysts; Expt 08, 0.5 mM, 17 embryos/drop, control 4): 1 | Embryos hatched after 48 hrs. (blastocysts; Expt 08, 0.5 mM, 17 embryos/drop, control 12): 3 | Effect on in vitro embryo hatching (blastocysts; compared to controls): almost completely inhibited | IC50 (ISP1-ISP2 enzyme complex [1]; [5]): 1800 µM | Affinity for ISP enzyme (ISP1-ISP2 enzyme complex [1]): relatively high affinity | Ki (ISP1-ISP2 enzyme complex [1]; BAPNA substrate): 490 µM | Influence on ISP activity (ISP1-ISP2 enzyme complex [1]): inhibitory influence | # pregnant (embryo implantation; group 1, 11 mice, Control 1: 6 of 6): 1 | # embryos (embryo implantation; group 1, 11 mice, Control 1: 72): 2 | Rate (%) of pregnancy (embryo implantation; group 1): 2.8% | # pregnant (embryo implantation; group 2, 6 mice, Control 2: 4 of 4): 1 | # embryos (embryo implantation; group 2, 6 mice, Control 2: 22): 3 | Rate (%) of pregnancy (embryo implantation; group 2): 13.6% | Effect on embryo implantation in vivo (embryo implantation; injected into the uterine lumen at 2.5 dpc, compared with controls): rate of pregnancy drops to very low | Embryos outgrown after 48 hrs. (hatched blastocysts [3]; Experiment 03, 0.1 mM, 8 hatched embryos, control 5): 0 | Embryos outgrown after 48 hrs. (hatched blastocysts [3]; Experiment 03, 0.5 mM, 8 hatched embryos, control 5): 1 | Embryos outgrown after 48 hrs. (hatched blastocysts [3]; Experiment 04, 0.1 mM, 11 hatched embryos, control 6): 5 | Embryos outgrown after 48 hrs. (hatched blastocysts [3]; Experiment 04, 0.5 mM, 11 hatched embryos, control 6): 1 | Effect on in vitro embryo outgrowth (hatched blastocysts [3]; compared to controls): almost completely inhibited

Cc1ccc(S(=O)(=O)N[C@@H](CCCCN)C(=O)CCl)cc1.Cl [TLCK, L-1-chloro-3[4-tosyl-amido]-7-amino-2-heptanone-HCl]
IC50 (ISP1-ISP2 enzyme complex [1]; [5]): 8000 µM | Ki (ISP1-ISP2 enzyme complex [1]; BAPNA substrate): 2180 µM | Influence on ISP activity (ISP1-ISP2 enzyme complex [1]): inhibitory influence

UPTI: rPorcine Uterine Plasmin Trypsin Inhibitor
IC50 (ISP1-ISP2 enzyme complex [1]; BAPNA substrate, no effect up to stated concentration, read-out: IC50% (No effect up to)): > 500000 µM
